We go through 24 molecules from patent US12503475B2 (Centessa Pharmaceuticals (UK) Limited, priority 2020, dated 2025).

Like-named read-outs stand apart in the source and are kept apart here.

In general, Emax refers to the size of the effect at its maximum, as opposed to the concentration needed.

This test concerns the target T1, human orexin type 2 receptor (hOX2R) (Homo sapiens, UniProt O43614).
T1 construct: expressed in transfected cells
T1 sequence (O43614 1-444): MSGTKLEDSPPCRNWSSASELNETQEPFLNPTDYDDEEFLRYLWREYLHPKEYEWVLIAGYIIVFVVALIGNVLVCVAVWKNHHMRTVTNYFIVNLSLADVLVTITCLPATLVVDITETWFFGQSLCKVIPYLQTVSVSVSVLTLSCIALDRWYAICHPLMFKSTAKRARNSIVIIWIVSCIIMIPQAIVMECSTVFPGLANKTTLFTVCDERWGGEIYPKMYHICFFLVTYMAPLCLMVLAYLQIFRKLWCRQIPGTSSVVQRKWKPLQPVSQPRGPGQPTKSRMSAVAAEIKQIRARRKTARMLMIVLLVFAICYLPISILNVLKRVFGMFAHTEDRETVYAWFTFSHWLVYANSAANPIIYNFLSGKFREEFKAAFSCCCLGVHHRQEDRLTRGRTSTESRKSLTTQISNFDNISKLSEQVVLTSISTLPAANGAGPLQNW
Description: Measurement of orexin type 2 receptor agonist activity (FLIPR calcium fluorescence). Format: cell-based. As to conditions: for EC50: read-out: hOx2 pEC50 (converted); for Emax: CHO, read-out: hOx2 Emax (%). The essentials:
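Agonism was read as fluorescence in cells stably expressing human OX2R. E. is the response at 10 μM relative to orexin A as full agonist (100%).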

Setting [1] is: CHO cells expressing hOX2R, FLIPR calcium fluorescence.

In the case of `COCCOCCS(=O)(=O)N[C@@H]1[C@H](Cc2cccc(-c3ccccc3)c2)N(C(=O)[C@H]2CCO2)CC12CC2` [Compound 74, N-((6S,7S)-6-([1,1′-biphenyl]-3-ylmethyl)-5-((R)-oxetane-2-carbonyl)-5-azaspiro[2.4]heptan-7-yl)-2-(2-methoxyethoxy)ethane-1-sulfonamide], under setting [1], the EC50 was 10 to 100 nM and the Emax was in the range of 90 to 100%.
On the same counts, the results for `O=C([C@H]1CCO1)N1CC2(CC2)[C@H](NS(=O)(=O)c2c[nH]cn2)[C@@H]1Cc1cccc(-c2ccccc2)c1` [Compound 75, N-((6S,7S)-6-([1,1′-biphenyl]-3-ylmethyl)-5-((R)-oxetane-2-carbonyl)-5-azaspiro[2.4]heptan-7-yl)-1H-imidazole-4-sulfonamide] are 10 to 100 nM and 90 to 100%.
On the same counts, the results for `O=C([C@H]1CCO1)N1CC2(CC2)[C@H](NS(=O)(=O)N2CCC2)[C@@H]1Cc1cccc(-c2ccccc2)c1` [Compound 76, N-((6S,7S)-6-([1,1′-biphenyl]-3-ylmethyl)-5-((R)-oxetane-2-carbonyl)-5-azaspiro[2.4]heptan-7-yl)azetidine-1-sulfonamide] are 10 to 100 nM and 90 to 100%.
`O=C([C@H]1CCO1)N1CC2(CC2)[C@H](NS(=O)(=O)C2COC2)[C@@H]1Cc1cccc(-c2ccccc2)c1` [Compound 77, N-((6S,7S)-6-([1,1′-biphenyl]-3-ylmethyl)-5-((R)-oxetane-2-carbonyl)-5-azaspiro[2.4]heptan-7-yl)oxetane-3-sulfonamide]: under setting [1], the EC50 was 10 to 100 nM and the Emax was in the range of 90 to 100%.
Take `CCN(C)S(=O)(=O)N[C@@H]1[C@H](Cc2cccc(-c3ccccc3)c2)N(C(=O)[C@H]2CCO2)CC12CC2` [Compound 78, N-((6S,7S)-6-([1,1′-biphenyl]-3-ylmethyl)-5-((R)-oxetane-2-carbonyl)-5-azaspiro[2.4]heptan-7-yl)-N-methyl-N-ethylsulfuric diamide]: under setting [1], the EC50 is 10 to 100 nM and the Emax was in the range of 90 to 100%.
Regarding `CS(=O)(=O)N[C@@H]1[C@H](Cc2cccc(-c3ccccc3)c2F)N(C(=O)NCCCF)CC12CC2` [Compound 79, (6S,7S)-6-((2-fluoro-[1,1′-biphenyl]-3-yl)methyl)-N-(3-fluoropropyl)-7-(methylsulfonamido)-5-azaspiro[2.4]heptane-5-carboxamide], under setting [1], the EC50 is 1 to 10 nM and the Emax was in the range of 90 to 100%.
On the same counts, the results for `CS(=O)(=O)N[C@@H]1[C@H](Cc2cccc(-c3ccccc3)c2F)N(C(=O)N2CC[C@H]2CF)CC12CC2` [Compound 80, N-((6S,7S)-6-((2-fluoro-[1,1′-biphenyl]-3-yl)methyl)-5-((S)-2-(fluoromethyl)azetidine-1-carbonyl)-5-azaspiro[2.4]heptan-7-yl)methanesulfonamide] are 0.0794 to 1 nM and 90 to 100%.
Take `CN(CC(F)F)C(=O)N1CC2(CC2)[C@H](NS(C)(=O)=O)[C@@H]1Cc1cccc(-c2ccccc2)c1F` [Compound 81, (6S,7S)-N-(2,2-difluoroethyl)-6-((2-fluoro-[1,1′-biphenyl]-3-yl)methyl)-N-methyl-7-(methylsulfonamido)-5-azaspiro[2.4]heptane-5-carboxamide]: under setting [1], the EC50 is 0.0794 to 1 nM and the Emax is 90 to 100%.
On the same counts, the results for `CN(CCF)C(=O)N1CC2(CC2)[C@H](NS(C)(=O)=O)[C@@H]1Cc1cccc(-c2ccccc2)c1F` [Compound 82, (6S,7S)-6-((2-fluoro-[1,1′-biphenyl]-3-yl)methyl)-N-(2-fluoroethyl)-N-methyl-7-(methylsulfonamido)-5-azaspiro[2.4]heptane-5-carboxamide] are 1 to 10 nM and 90 to 100%.
With `CS(=O)(=O)N[C@@H]1[C@H](Cc2cccc(-c3ccccc3)c2F)N(C(=O)NC2CC(F)(F)C2)CC12CC2` [Compound 83, (6S,7S)-N-(3,3-difluorocyclobutyl)-6-((2-fluoro-[1,1′-biphenyl]-3-yl)methyl)-7-(methylsulfonamido)-5-azaspiro[2.4]heptane-5-carboxamide], under setting [1], the EC50 is 10 to 100 nM and the Emax was 90 to 100%.
On the same counts, the results for `C[C@H](F)CNC(=O)N1CC2(CC2)[C@H](NS(C)(=O)=O)[C@@H]1Cc1cccc(-c2ccccc2)c1F` [Compound 84, (6S,7S)-6-((2-fluoro-[1,1′-biphenyl]-3-yl)methyl)-N-((S)-2-fluoropropyl)-7-(methylsulfonamido)-5-azaspiro[2.4]heptane-5-carboxamide] are 0.0794 to 1 nM and 90 to 100%.
On the same counts, the results for `CC(C)NC(=O)N1CC2(CC2)[C@H](NS(C)(=O)=O)[C@@H]1Cc1cccc(-c2ccccc2)c1F` [Compound 85] are 0.0794 to 1 nM and 90 to 100%.
With `CS(=O)(=O)N[C@@H]1[C@H](Cc2cccc(-c3ccccc3)c2F)N(C(=O)NCCF)CC12CC2` [Compound 86, (6S,7S)-6-((2-fluoro-[1,1′-biphenyl]-3-yl)methyl)-N-(2-fluoroethyl)-7-(methylsulfonamido)-5-azaspiro[2.4]heptane-5-carboxamide], under setting [1], the EC50 was 1 to 10 nM and the Emax was 90 to 100%.
On the same counts, the results for `CS(=O)(=O)N[C@@H]1[C@H](Cc2cccc(-c3ccccc3)c2F)N(C(=O)N2CC(F)(F)C2)CC12CC2` [Compound 87, N-((6S,7S)-5-(3,3-difluoroazetidine-1-carbonyl)-6-((2-fluoro-[1,1′-biphenyl]-3-yl)methyl)-5-azaspiro[2.4]heptan-7-yl)methanesulfonamide] are 10 to 100 nM and 90 to 100%.
On the same counts, the results for `CCN(C)C(=O)N1CC2(CC2)[C@H](NS(C)(=O)=O)[C@@H]1Cc1cccc(-c2ccccc2)c1F` [Compound 88, (6S,7S)-N-ethyl-6-((2-fluoro-[1,1′-biphenyl]-3-yl)methyl)-N-methyl-7-(methylsulfonamido)-5-azaspiro[2.4]heptane-5-carboxamide] are 0.0794 to 1 nM and 90 to 100%.
Consider `CCNC(=O)N1CC2(CC2)[C@H](NS(=O)(=O)CC)[C@@H]1Cc1cccc(-c2ccccc2)c1F` [Compound 89], for which, under setting [1], the “hOx2 Emax (%)” value was “A (Emax ranging between 90 and 100)”; the “hOx2 pEC50” value was “***** (pEC50 ranging between 9.0 and 10.1)”.
Turning to `O=C([C@H]1CCO1)N1CC2(CC2)[C@H](NS(=O)(=O)CF)[C@@H]1Cc1cccc(-c2ccccc2)c1F` [Compound 93, 1-fluoro-N-((6S,7S)-6-((2-fluoro-[1,1′-biphenyl]-3-yl)methyl)-5-((R)-oxetane-2-carbonyl)-5-azaspiro[2.4]heptan-7-yl)methanesulfonamide], under setting [1], the EC50 is 0.0794 to 1 nM and the Emax fell in the range of 90 to 100%.
As for `O=C([C@H](O)C(F)(F)F)N1CC2(CC2)[C@H](NS(=O)(=O)CF)[C@@H]1Cc1cccc(-c2ccccc2)c1` [Compound 94, N-((6S,7S)-6-([1,1′-biphenyl]-3-ylmethyl)-5-((S)-3,3,3-trifluoro-2-hydroxypropanoyl)-5-azaspiro[2.4]heptan-7-yl)-1-fluoromethanesulfonamide], under setting [1], the EC50 was 1 to 10 nM and the Emax lay in the range of 90 to 100%.
On the same counts, the results for `CN(C)S(=O)(=O)N[C@@H]1[C@H](Cc2cccc(-c3ccccc3)c2)N(C(=O)[C@H]2CCO2)CC12CC2` [Compound 95, N-((6S,7S)-6-([1,1′-biphenyl]-3-ylmethyl)-5-((R)-oxetane-2-carbonyl)-5-azaspiro[2.4]heptan-7-yl)-N,N-dimethylsulfuric diamide] are 1 to 10 nM and 90 to 100%.
On the same counts, the results for `O=C([C@H]1CCO1)N1CC2(CC2)[C@H](NS(=O)(=O)N2CCCC2)[C@@H]1Cc1cccc(-c2ccccc2)c1` [Compound 96, N-((6S,7S)-6-([1,1′-biphenyl]-3-ylmethyl)-5-((R)-oxetane-2-carbonyl)-5-azaspiro[2.4]heptan-7-yl)pyrrolidine-1-sulfonamide] are 10 to 100 nM and 80 to 90%.
On the same counts, the results for `CN(C1CC1)S(=O)(=O)N[C@@H]1[C@H](Cc2cccc(-c3ccccc3)c2)N(C(=O)[C@H]2CCO2)CC12CC2` [Compound 97] are 10 to 100 nM and 80 to 90%.
Consider `O=C([C@H](O)C(F)(F)F)N1CC2(CC2)[C@H](NS(=O)(=O)CF)[C@@H]1Cc1cccc(-c2ccccc2)c1F` [Compound 98, 1-fluoro-N-((6S,7S)-6-((2-fluoro-[1,1′-biphenyl]-3-yl)methyl)-5-((S)-3,3,3-trifluoro-2-hydroxypropanoyl)-5-azaspiro[2.4]heptan-7-yl)methanesulfonamide], for which, under setting [1], the EC50 was 1 to 10 nM and the Emax fell in the range of 90 to 100%.
For `CS(=O)(=O)N[C@@H]1[C@H](Cc2cccc(-c3ccccc3)c2F)N(C(=O)NCC(F)(F)F)CC12CC2` [Compound 99, (6S,7S)-6-((2-fluoro-[1,1′-biphenyl]-3-yl)methyl)-7-(methylsulfonamido)-N-(2,2,2-trifluoroethyl)-5-azaspiro[2.4]heptane-5-carboxamide], the Emax was 90 to 100%. Also, the EC50 under setting [1] is 1 to 10 nM.
Take `COC1(CNC(=O)N2CC3(CC3)[C@H](NS(C)(=O)=O)[C@@H]2Cc2cccc(-c3ccccc3)c2F)CC1` [Compound 100, (6S,7S)-6-((2-fluoro-[1,1′-biphenyl]-3-yl)methyl)-N-((1-methoxycyclopropyl)methyl)-7-(methylsulfonamido)-5-azaspiro[2.4]heptane-5-carboxamide]: under setting [1], the EC50 was 0.0794 to 1 nM and the Emax fell in the range of 90 to 100%.
